Reference: patent US11046686B2, “Thiadiazole IRAK4 compounds” (Gilead Sciences, Inc., priority 2018, dated 2021)

Tested on: TNFα
Test: IRAK4 Monocyte TNFα Cell Based Assay
Parameters: species or system human
Conditions: human monocytes; second part of Table 2, compounds 33-343; unit inferred; read-out: EC50 MONO TNF HTRF
How it was run: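 TNFα release quantified by HTRF (cryptate/XL665 antibody pair, overnight at RT) after 1 h compound pre-incubation (0.1% DMSO) and 4 h LPS challenge at 50 pg/ml, 37 °C, 5,000 monocytes per well. Signal ratio normalised between unstimulated (0%) and stimulated (100%) controls.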

Compound | EC50
CC(=O)N[C@H]1[C@@H]2COC[C@H]1CN(c1nnc(-c3cnc(-c4ccc5cc(C#N)cnn45)cc3NC(C)C)s1)C2 [Example 182, N-((1R,5S,9r)-7-(5-(6-(3-cyanopyrrolo[1,2-b]pyridazin-7-yl)-4-(isopropylamino)pyridin-3-yl)-1,3,4-thiadiazol-2-yl)-3-oxa-7-azabicyclo[3.3.1]nonan-9-yl)acetamide] | 37.8 nM
CC(=O)N[C@@H]1[C@@H]2CC[C@H]1CN(c1nnc(-c3cnc(-c4ccc5cc(C#N)cnn45)cc3NC3COC3)s1)C2 [Example 184] | 2.4 nM
CC(C)Nc1cc(-c2ccc3cc(C#N)cnn23)ncc1-c1nnc(N2CC[C@@](C)(O)[C@@H](F)C2)s1 [Example 186, 7-(5-(5-((3S,4R)-3-fluoro-4-hydroxy-4-methylpiperidin-l-yl)-1,3,4-thiadiazol-2-yl)-4-(isopropylamino)pyridin-2-yl)pyrrolo[1,2-b]pyridazine-3-carbonitrile] | 8.4 nM
CC(C)Nc1cc(-c2ccc3cc(C#N)cnn23)ncc1-c1nnc(N2CCC(O)(CF)CC2)s1 [Example 189] | 16.3 nM
CC(C)Nc1cc(-c2ccc3cc(C#N)cnn23)ncc1-c1nnc([C@H]2C[C@@](C)(O)C2)s1 [Example 199, 7-(5-(5-((1s,3s)-3-hydroxy-3-methylcyclobutyl)-1,3,4-thiadiazol-2-yl)-4-(isopropylamino)pyridin-2-yl)pyrrolo[1,2-b]pyridazine-3-carbonitrile] | 38.3 nM
CC(=O)N[C@H]1C[C@H](c2nnc(-c3cnc(-c4ccc5cc(C#N)cnn45)cc3NC3CCOCC3)s2)C1 [Example 201] | 34.9 nM
CC(=O)N[C@H]1C[C@H](c2nnc(-c3cnc(-c4ccc5cc(C#N)cnn45)cc3NC3COC3)s2)C1 [Example 202] | 166 nM
CC(=O)N[C@@H]1C[C@H]2COC[C@@H](C1)N2c1nnc(-c2cnc(-c3ccc4cc(C#N)cnn34)cc2NC(C)C)s1 [Example 209, N-((1R,5S,7r)-9-(5-(6-(3-cyanopyrrolo[1,2-b]pyridazin-7-yl)-4-(isopropylamino)pyridin-3-yl)-1,3,4-thiadiazol-2-yl)-3-oxa-9-azabicyclo[3.3.1]nonan-7-yl)acetamide] | 9.6 nM
CC1(Nc2cc(-c3ccc4cc(C#N)cnn34)ncc2-c2nnc(N3C[C@H]4CC[C@@H](C3)[C@@H]4NC(=O)C(C)(C)O)s2)COC1 [Example 210, N-((1R,5S,8s)-3-(5-(6-(3-cyanopyrrolo[1,2-b]pyridazin-7-yl)-4-((3-methyloxetan-3-yl)amino)pyridin-3-yl)-1,3,4-thiadiazol-2-yl)-3-azabicyclo[3.2.1]octan-8-yl)-2-hydroxy-2-methylpropanamide] | 2.8 nM
CC(C)Nc1cc(-c2ccc3cc(C#N)cnn23)ncc1-c1nnc(C(=O)N[C@H]2C[C@H](O)C2)s1 [Example 213, 5-(6-(3-cyanopyrrolo[1,2-b]pyridazin-7-yl)-4-(isopropylamino)pyridin-3-yl)-N-((1r,3r)-3-hydroxycyclobutyl)-1,3,4-thiadiazole-2-carboxamide] | 1830 nM
CC(C)Nc1cc(-c2ccc3cc(C#N)cnn23)ncc1-c1nnc(C(=O)N[C@H]2C[C@@H](O)C2)s1 [Example 215, 5-(6-(3-cyanopyrrolo[1,2-b]pyridazin-7-yl)-4-(isopropylamino)pyridin-3-yl)-N-((1s,3s)-3-hydroxycyclobutyl)-1,3,4-thiadiazole-2-carboxamide] | 3100 nM
CC(C)Nc1cc(-c2ccc3cc(C#N)cnn23)ncc1-c1nnc(C(=O)N2CC[C@@H](CO)C2)s1 [Example 216] | 18.1 nM
CC(C)Nc1cc(-c2ccc3cc(C#N)cnn23)ncc1-c1nnc(C(=O)N2CCC[C@H]2CO)s1 [Example 217] | 11.1 nM
CC(C)Nc1cc(-c2ccc3cc(C#N)cnn23)ncc1-c1nnc(C(=O)N[C@H]2C[C@@](C)(O)C2)s1 [Example 218, 5-(6-(3-cyanopyrrolo[1,2-b]pyridazin-7-yl)-4-(isopropylamino)pyridin-3-yl)-N-((1s,3s)-3-hydroxy-3-methylcyclobutyl)-1,3,4-thiadiazole-2-carboxamide] | 858 nM
CC(C)Nc1cc(-c2ccc3cc(C#N)cnn23)ncc1-c1nnc(C(=O)N[C@H]2C[C@](C)(O)C2)s1 [Example 219] | 2070 nM
CC(C)Nc1cc(-c2ccc3cc(C#N)cnn23)ncc1-c1nnc(C(=O)N[C@H]2CC[C@H](O)CC2)s1 [Example 220, 5-(6-(3-cyanopyrrolo[1,2-b]pyridazin-7-yl)-4-(isopropylamino)pyridin-3-yl)-N-((1r,4r)-4-hydroxycyclohexyl)-1,3,4-thiadiazole-2-carboxamide] | 131 nM
CC(C)Nc1cc(-c2ccc3cc(C#N)cnn23)ncc1-c1nnc(C(=O)N[C@H]2CC[C@@H](O)CC2)s1 [Example 224, 5-(6-(3-cyanopyrrolo[1,2-b]pyridazin-7-yl)-4-(isopropylamino)pyridin-3-yl)-N-((1s,4s)-4-hydroxycyclohexyl)-1,3,4-thiadiazole-2-carboxamide] | 4770 nM
CC(=O)NC1CCC(c2nnc(-c3cnc(-c4ccc5cc(C#N)cnn45)cc3NC3CCC(c4cnn(C(F)F)c4)CC3)s2)CC1 [Example 227, N-((1R,4r)-4-(5-(6-(3-cyanopyrrolo[1,2-b]pyridazin-7-yl)-4-(((1r,4R)-4-(1-(difluoromethyl)-1H-pyrazol-4-yl)cyclohexyl)amino)pyridin-3-yl)-1,3,4-thiadiazol-2-yl)cyclohexyl)acetamide] | 14.4 nM
CNc1cc(-c2ccc3cc(C#N)cnn23)ncc1-c1nnc([C@H]2C[C@H](NC(C)=O)C2)s1 [Example 282, N-((1r,3r)-3-(5-(6-(3-cyanopyrrolo[1,2-b]pyridazin-7-yl)-4-(methylamino)pyridin-3-yl)-1,3,4-thiadiazol-2-yl)cyclobutyl)acetamide] | 22.4 nM
CC(=O)NC1CC2CC1CC2c1nnc(-c2cnc(-c3ccc4cc(C#N)cnn34)cc2NC(C)C)s1 (centres unmarked) [Example 285, N-(5-(5-(6-(3-cyanopyrrolo[1,2-b]pyridazin-7-yl)-4-(isopropylamino)pyridin-3-yl)-1,3,4-thiadiazol-2-y)bicyclo[2.2.1]heptan-2-yl)acetamide] | 68 nM
CC(C)Nc1cc(-c2ccc3cc(C#N)cnn23)ncc1-c1nnc(N2CCC(C)(O)CC2)s1 [Example 287, 7-(5-(5-(4-hydroxy-4-methylpiperidin-l-yl)-1,3,4-thiadiazol-2-yl)-4-(isopropylamino)pyridin-2-yl)pyrrolo[1,2-b]pyridazine-3-carbonitrile] | 9.8 nM
CC(=O)NC[C@H]1C[C@@H](c2nnc(-c3cnc(-c4ccc5cc(C#N)cnn45)cc3NC(C)C)s2)C1 [Example 289, N-(((1s,3s)-3-(5-(6-(3-cyanopyrrolo[1,2-b]pyridazin-7-yl)-4-(isopropylamino)pyridin-3-yl)-1,3,4-thiadiazol-2-yl)cyclobutyl)methyl)acetamide] | 21.4 nM
CC(=O)NC[C@H]1C[C@H](c2nnc(-c3cnc(-c4ccc5cc(C#N)cnn45)cc3NC(C)C)s2)C1 [Example 290, N-(((1r,3r)-3-(5-(6-(3-cyanopyrrolo[1,2-b]pyridazin-7-yl)-4-(isopropylamino)pyridin-3-yl)-1,3,4-thiadiazol-2-yl)cyclobutyl)methyl)acetamide] | 16.2 nM
